Test results: US20250333410A1, “COMPOUND FOR INHIBITING OR DEGRADING BCL6 AND USE THEREOF IN PHARMACEUTICS” (XIZANG HAISCO PHARMACEUTICAL CO., LTD., priority 2022, published 2025)
pIC50: −log10 of the molar value.

How the values were obtained:
Bcl6 [1] = biological target: T1, Bcl6 (Homo sapiens (Human), UniProt P41182); assay: Bcl-6 protein degradation experiment in OCI-LY1 cells; format: cell-based; details: 24 hours
Description: 4. Bcl-6 Protein Degradation Experiment in OCI-LY1 Cells
(§1) OCI-LY1 cells purchased from DSMZ were placed in an IMDM complete medium (containing 10% fetal bovine serum, 100 U/mL penicillin, 100 μg/mL streptomycin and 50 µM mercaptoethanol) and cultured at 37° C. and 5% CO2. The cells in the logarithmic growth phase were collected, and the cell suspension was adjusted to an appropriate density with the culture medium and added to a 6-well cell culture plate at a volume of 1 mL/well. The compounds to be tested were prepared to 2-fold the final concentration, 1 mL of the compounds at different concentrations were added to administration wells, a medium containing 0.2% DMSO was added to control wells, and the plate was incubated at 37° C. for 24 hours. The cells were collected into a 1.5 mL centrifuge tube, 25 L of RIPA lysis buffer (containing 1× protease inhibitor cocktail) was added, and the cells were lysed on ice for 15 minutes and centrifuged at 12000 rpm/min at 4° C. for 10 minutes. The supernatant was collected and the protein content was determined using the BCA method. The protein sample to be tested was diluted to 0.8 mg/mL, Bcl6 was detected using a fully automated protein expression quantitative analyzer (ProteinSimple), and the internal reference protein was R-actin (both antibodies were from CST). The software (Compass for SW) of the fully automated protein expression quantitative analyzer was used to process the raw data and calculate the peak area and the Bcl6 expression rate relative to the control group. DC50 values were calculated using a four-parameter non-linear fitting model in Graphpad 8.3.0 software.

[2] = biological target: hERG potassium ion channel (Homo sapiens (Human), UniProt Q12809); assay: Test for hERG potassium ion channel (manual patch-clamp, CHO cells); format: cell-based; details: CHO cells stably expressing hERG, whole cell patch-clamp; read-out: IC50 of inhibitory effects on hERG potassium channel current
hERG potassium ion channel, sequence (Q12809 whole entry): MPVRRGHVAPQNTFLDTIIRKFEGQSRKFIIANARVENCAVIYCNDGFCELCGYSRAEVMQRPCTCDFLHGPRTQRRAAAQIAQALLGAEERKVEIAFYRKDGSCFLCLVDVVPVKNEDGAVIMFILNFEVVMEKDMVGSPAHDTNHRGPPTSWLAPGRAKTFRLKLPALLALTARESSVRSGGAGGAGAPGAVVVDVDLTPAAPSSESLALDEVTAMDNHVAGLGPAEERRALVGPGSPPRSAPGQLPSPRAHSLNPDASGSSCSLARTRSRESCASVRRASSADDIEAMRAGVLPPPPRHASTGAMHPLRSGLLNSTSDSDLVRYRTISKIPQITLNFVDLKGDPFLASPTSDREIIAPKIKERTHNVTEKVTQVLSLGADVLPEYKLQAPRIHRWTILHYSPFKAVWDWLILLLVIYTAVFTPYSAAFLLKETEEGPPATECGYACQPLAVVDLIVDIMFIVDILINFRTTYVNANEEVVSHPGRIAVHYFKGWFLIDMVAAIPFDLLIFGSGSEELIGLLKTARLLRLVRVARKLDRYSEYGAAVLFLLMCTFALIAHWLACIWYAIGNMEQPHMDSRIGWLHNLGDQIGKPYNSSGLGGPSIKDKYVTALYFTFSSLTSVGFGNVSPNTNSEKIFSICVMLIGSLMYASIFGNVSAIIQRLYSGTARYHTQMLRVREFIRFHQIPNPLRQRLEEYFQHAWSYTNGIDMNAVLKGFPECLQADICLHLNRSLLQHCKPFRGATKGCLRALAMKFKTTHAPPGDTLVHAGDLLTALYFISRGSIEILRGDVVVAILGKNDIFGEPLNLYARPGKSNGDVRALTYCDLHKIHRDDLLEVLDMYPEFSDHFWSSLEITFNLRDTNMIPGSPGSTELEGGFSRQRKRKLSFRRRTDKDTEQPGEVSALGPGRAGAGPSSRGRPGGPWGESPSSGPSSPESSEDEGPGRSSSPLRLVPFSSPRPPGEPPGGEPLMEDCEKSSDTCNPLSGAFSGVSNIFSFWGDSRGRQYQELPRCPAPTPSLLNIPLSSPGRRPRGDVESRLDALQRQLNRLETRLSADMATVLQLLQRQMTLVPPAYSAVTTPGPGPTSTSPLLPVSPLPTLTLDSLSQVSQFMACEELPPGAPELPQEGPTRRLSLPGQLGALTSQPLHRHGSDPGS
Source text: 8. Test for hERG Potassium Ion Channel
Experimental platform: electrophysiological manual patch-clamp system
Cell line: Chinese hamster ovary (CHO) cell lines stably expressing hERG potassium ion channel
Experimental method: in CHO (Chinese Hamster Ovary) cells stably expressing hERG potassium channel, the whole cell patch-clamp technique was used to record hERG potassium channel current at room temperature. The glass microelectrode was made of a glass electrode blank (BF150-86-10, Sutter) by a puller. The tip resistance after filling the liquid in the electrode was about 2-5 MΩ. The glass microelectrode can be connected to the patch-clamp amplifier by inserting the glass microelectrode into an amplifier probe. The clamping voltage and data recording were controlled and recorded by the pClamp 10 software through a computer. The sampling frequency was 10 kHz, and the filtering frequency was 2 kHz. After the whole cell records were obtained, the cells were clamped at −80 mV, and the step voltage that induced the hERG potassium current (IhERG) was depolarized from −80 mV to +20 mV for 2 s, then repolarized to −50 mV, and returned to −80 mV after 1 s. This voltage stimulation was given every 10 s, and the administration process was started after the hERG potassium current was confirmed to be stable (at least 1 minute). The compound was administered for at least 1 minute at each test concentration, and at least 2 cells (n≥2) were tested at each concentration.
Data processing: data analysis processing was carried out by using pClamp 10, GraphPad Prism 5 and Excel software. The inhibition degree of hERG potassium current (peak value of hERG tail current induced at −50 mV) at different compound concentrations was calculated by the following formula: […]
where Inhibition % represents the percentage of inhibition of hERG potassium current by the compound, and I and Io represent the amplitude of hERG potassium current after and before the administration, respectively.
Compound IC50 was calculated using GraphPad Prism 5 software by fitting according to the following equation: […]
Among the equation, X represents the Log value of the tested concentration of the test sample, Y represents the inhibition percentage at the corresponding concentration, and Bottom and Top represent the minimum and maximum inhibition percentage, respectively.

Bcl6 [3] = biological target: T1, Bcl6; assay: Bcl-6 protein degradation experiment in Farage cells; format: cell-based; details: 24 hours
Description: 2. Bcl-6 Protein Degradation Experiment in Farage Cells
as §1, with “Farage cells” for “OCI-LY1 cells”, “from ATCC” for “from DSMZ”, “an RPMI-1640” for “an IMDM”, “U/mL penicillin and” for “U/mL penicillin,”, “μg/mL streptomycin)” for “μg/mL streptomycin and 50 µM mercaptoethanol)”, “25 μL” for “25 L”

[4] = Pharmacokinetic test in rats; format: in vivo, SD rats; details: male, SD, rat, po; rats plasma, i.g. 5 mg/kg
Description: 5. Pharmacokinetic Test in Rats
Experimental objective: in this experiment, a single dose of each test compound was administered to SD rats intravenously and intragastrically, and the concentrations of the test compounds in plasma of rats were measured to evaluate the pharmacokinetic characteristics of the test compounds in rats.
Experimental animal: male SD rats, 200-220 g, 6-8 weeks old, 6 rats/compound, purchased from Chengdu Ddossy Experimental Animals Co., Ltd.
Experimental method: on the day of the experiment, the SD rats were randomly grouped according to their body weights. The animals were fasted but with water available for 12 to 14 h one day before the administration, and were fed 4 h after the administration.
Sampling: Before and after the administration, 0.1 mL of blood was taken from the orbits under isoflurane anesthesia and placed in an EDTAK2 centrifuge tube. Centrifugation was carried out at 5000 rpm at 4° C. for 10 min, and the plasma was collected.
The plasma collection time points for IV&PO groups were 0, 5 min, 15 min, 30 min, 1 h, 2 h, 4 h, 7h, and 24 h.
Before analysis and detection, all samples were stored at −60° C. The samples were analyzed quantitatively by LC-MS/MS. PGP-3212J

[5] = Pharmacokinetic test in mice; format: in vivo, ICR mice; details: i.g. 5 mg/kg; for AUC(0-t): male, ICR, mouse, po, mice plasma; for F: mice
Description: 3. Pharmacokinetic Test in Mice
1.1 Experimental animal: male ICR mice, 25-30 g, 6 mice/compound, purchased from Chengdu Ddossy Experimental Animals Co., Ltd.
1.2 Experimental design: on the day of the experiment, the ICR mice were randomly grouped according to their body weights. The animals were fasted but with water available for 12 to 14 h one day before the administration, and were fed 4 h after the administration.

DC50 (Bcl6 [1]) [nM]	DC50 (Bcl6 [3]) [nM]	AUC(0-t) [5] [ng·h/mL]	SMILES	pIC50 [2]	also measured
< 100			CC(=O)COc1cc2cc(Nc3nc(N4CCC(C5CCN(c6ccc(C7CCC(=O)NC7=O)cc6)CC5)CC4)ncc3Cl)ccc2n(C)c1=O (stereo not drawn) [Compound 18]		
	< 10		CNC(=O)COc1cc2cc(Nc3nc(N4CCC(CN5CCn6c(nc7cc(F)c(C8CCC(=O)NC8=O)cc76)C5)CC4)ncc3Cl)ccc2n(C(C)C)c1=O (stereo not drawn) [Trifluoroacetate of compound 75]	< 4.40	
	< 10		[2H]C([2H])([2H])NC(=O)COc1cc2cc(Nc3nc(N4CCC(O[C@H]5C[C@H](N6CCN7c8cc(F)c(C9CCC(=O)NC9=O)cc8CC[C@H]7C6)C5)CC4)ncc3Cl)ccc2n(C)c1=O (stereo partly drawn) [Trifluoroacetate of compound 72]	< 4.40	AUC(0-t) [4]: > 1000 ng·h/mL
< 100	< 10	> 1000	CNC(=O)COc1cc2cc(Nc3nc(N4CCN(CC5CCN(c6ccc(C7CCC(=O)NC7=O)c(F)c6)CC5)CC4)ncc3Cl)ccc2n(C)c1=O (stereo not drawn) [Trifluoroacetate of compound 24]		DC50 (Bcl6 [1]; listed as trifluoroacetate of compound 24): < 5 nM; F [5]: >50%
	< 10	> 1000	[2H]C([2H])([2H])NC(=O)COc1cc2cc(Nc3nc(N4CCC(CN5CCN6c7cc(F)c(C8CCC(=O)NC8=O)cc7CC[C@H]6C5)CC4)ncc3Cl)ccc2n(C([2H])([2H])[2H])c1=O (stereo partly drawn) [Trifluoroacetate of compound 66]		F [5]: >50%
< 100	< 10	> 1000	CNC(=O)COc1cc2cc(Nc3nc(N4CCC(O[C@H]5C[C@H](N6CCN7c8cc(F)c(C9CCC(=O)NC9=O)cc8CC[C@H]7C6)C5)CC4)ncc3Cl)ccc2n(C(C)C)c1=O (stereo partly drawn) [Trifluoroacetate of compound 58]		DC50 (Bcl6 [1]; listed as trifluoroacetate of compound 58): < 5 nM; F [5]: >50%
	< 10	> 1000	[2H]C([2H])([2H])NC(=O)COc1cc2cc(Nc3nc(N4CCC(CN5CCN6c7cc(F)c(C8CCC(=O)NC8=O)cc7CC[C@@H]6C5)CC4)ncc3Cl)ccc2n(C([2H])([2H])[2H])c1=O (stereo partly drawn) [Trifluoroacetate of compound 63]		
< 100		> 1000	CC(=O)COc1cc2cc(Nc3nc(N4CCC(N5CCN(c6ccc(C7CCC(=O)NC7=O)cc6)CC5)CC4)ncc3Cl)ccc2n(C)c1=O (stereo not drawn) [Compound 15]		
	< 10		CCn1c(=O)c(OCC(=O)NC)cc2cc(Nc3nc(N4CCC(O[C@H]5C[C@H](N6CCN7c8cc(F)c(C9CCC(=O)NC9=O)cc8CC[C@@H]7C6)C5)CC4)ncc3Cl)ccc21 (stereo partly drawn) [Trifluoroacetate of compound 74]		AUC(0-t) [4]: > 1000 ng·h/mL
	< 10		CNC(=O)COc1cc2cc(Nc3nc(N4CCC(O[C@H]5C[C@H](N6CCn7c(cc8cc(C9CCC(=O)NC9=O)c(F)cc87)C6)C5)CC4)ncc3Cl)ccc2n(C(C)C)c1=O (stereo partly drawn) [Trifluoroacetate of compound 78]	< 4.40	AUC(0-t) [4]: > 1000 ng·h/mL
	< 10	> 1000	[2H]C([2H])([2H])n1c(=O)c(OCC(=O)NC)cc2cc(Nc3nc(N4CCC(CN5CCN6c7cc(F)c(C8CCC(=O)NC8=O)cc7CC[C@H]6C5)CC4)ncc3Cl)ccc21 (stereo partly drawn) [Trifluoroacetate of compound 65]		
	< 10	> 1000	CNC(=O)COc1cc2cc(Nc3nc(N4CCC(CN5CCN6c7cc(F)c(C8CCC(=O)NC8=O)cc7CC[C@@H]6C5)CC4)ncc3Cl)ccc2n(C(C)C)c1=O (stereo partly drawn) [Trifluoroacetate of compound 56]		
	< 10		[2H]C([2H])([2H])n1c(=O)c(OCC(=O)NC)cc2cc(Nc3nc(N4CCC(O[C@H]5C[C@H](N6CCN7c8cc(F)c(C9CCC(=O)NC9=O)cc8CC[C@H]7C6)C5)CC4)ncc3Cl)ccc21 (stereo partly drawn) [Trifluoroacetate of compound 73]	< 4.40	AUC(0-t) [4]: > 1000 ng·h/mL
	< 10		CNC(=O)COc1cc2cc(Nc3nc(N4CCC(CN5CCn6c(cc7cc(C8CCC(=O)NC8=O)c(F)cc76)C5)CC4)ncc3Cl)ccc2n(C(C)C)c1=O (stereo not drawn) [Trifluoroacetate of compound 77]	< 4.40	
	< 10	> 1000	[2H]C([2H])([2H])NC(=O)COc1cc2cc(Nc3nc(N4CCC(CN5CCN6c7cc(F)c(C8CCC(=O)NC8=O)cc7CC[C@H]6C5)CC4)ncc3Cl)ccc2n(C)c1=O (stereo partly drawn) [Trifluoroacetate of compound 67]	< 4.40	F [5]: >50%
	< 10	> 1000	CC(=O)COc1cc2cc(Nc3nc(N4CCC(CN5CCN(c6ccc(C7CCC(=O)NC7=O)cc6)CC5)CC4)ncc3Cl)ccc2n(C)c1=O (stereo not drawn) [Trifluoroacetate of compound 13]		
< 100			CNC(=O)COc1cc2cc(Nc3nc(N4CCC(N5CCN(c6ccc(C7CCC(=O)NC7=O)cc6)CC5)CC4)ncc3Cl)ccc2n(C)c1=O (stereo not drawn) [Compound 16]		
< 100	< 10	> 1000	CNC(=O)COc1cc2cc(Nc3nc(N4CCC(CN5CCN6c7cc(F)c(C8CCC(=O)NC8=O)cc7CC[C@H]6C5)CC4)ncc3Cl)ccc2n(C(C)C)c1=O (stereo partly drawn) [Trifluoroacetate of compound 57]		DC50 (Bcl6 [1]; listed as trifluoroacetate of compound 57): < 5 nM
